Literature values in patent US20180295833A1, “METHOD FOR SUPPRESSION OF OR PROTECTION FROM ISCHEMIA/REPERFUSION INJURY OF ORGANS FOR TRANSPLANTATION” (MiZ Company Limited, priority 2017, published 2018).

Conditions: normal temperature and normal pressure of 15° C. to 25° C. and 1 atm

SMILES: [HH] [molecular hydrogen]
- saturation concentration of molecular hydrogen: 1.6 ppm
